According to patent US9024017B2, “Octahydro-cyclopentapyrrolyl antagonists of CCR2” (Janssen Pharmaceutica NV, priority 2012, dated 2015):

target: T1, CCR2 (Homo sapiens, UniProt P41597); assay: MCP-1 Receptor Binding Assay in THP-1 Cells; settings: read-out: MCP1B_v3 IC50
T1 construct: host or cells: THP-1 (human monocytic cell line)
In short: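 Human monocytic THP-1 cells incubated 2 h at 30 °C with 0.5 nM 125I-MCP-1 and varying concentrations of test compound or unlabelled MCP-1. Cells filter-harvested and counted by scintillation; blank subtracted, compared with vehicle; nonspecific binding with 1 μM cold MCP-1.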

T1 sequence (P41597 whole entry): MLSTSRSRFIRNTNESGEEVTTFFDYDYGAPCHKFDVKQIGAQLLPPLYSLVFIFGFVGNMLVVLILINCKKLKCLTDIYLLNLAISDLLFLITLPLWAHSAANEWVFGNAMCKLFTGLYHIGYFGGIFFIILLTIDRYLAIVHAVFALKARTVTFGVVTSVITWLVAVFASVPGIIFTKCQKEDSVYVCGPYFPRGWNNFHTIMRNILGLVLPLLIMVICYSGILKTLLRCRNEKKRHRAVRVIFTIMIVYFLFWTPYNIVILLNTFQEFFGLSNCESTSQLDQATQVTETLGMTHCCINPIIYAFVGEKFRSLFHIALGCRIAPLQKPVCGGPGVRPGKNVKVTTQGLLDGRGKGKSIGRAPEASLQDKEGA

Row | SMILES | IC50 [nM]
1 | COC1COCCC1N[C@@H]1C[C@H]2CN(C(=O)OCCC(F)(F)F)C[C@@]2(C(=O)N2CCc3ncc(C(F)(F)F)cc3C2)C1 (relative stereo) [Example 51, (3aR,5R,6aR)-3,3,3-Trifluoropropyl 5-(((3S*,4S*)-3-methoxytetrahydro-2H-pyran-4-yl)amino)-3a-(3-(trifluoromethyl)-5,6,7,8-tetrahydro-1,6-naphthyridine-6-carbonyl)hexahydrocyclo-penta[c]pyrrole-2(1H)-carboxylate] | 140
2 | COC1COCCC1N[C@@H]1C[C@H]2CN(S(=O)(=O)Cc3ccccc3)C[C@@]2(C(=O)N2CCc3ncc(C(F)(F)F)cc3C2)C1 (relative stereo) [Example 92, ((3aR,5R,6aR)-2-(Benzylsulfonyl)-5-(((3S*,4S*)-3-methoxytetrahydro-2H-pyran-4-yl)amino)octahydrocyclopenta[c]pyrrol-3a-yl)(3-(trifluoromethyl)-7,8-dihydro-1,6-naphthyridin-6(5H)-yl)methanone] | 1100
3 | COC1COCCC1N[C@@H]1C[C@H]2CN(C(=O)OCC3CCOCC3)C[C@@]2(C(=O)N2CCc3ncc(C(F)(F)F)cc3C2)C1 (relative stereo) [Example 47, (3aR,5R,6aR)-(Tetrahydro-2H-pyran-4-yl)methyl 5-(((3S*,4S*)-3-methoxytetrahydro-2H-pyran-4-yl)amino)-3a-(3-(trifluoromethyl)-5,6,7,8-tetrahydro-1,6-naphthyridine-6-carbonyl)hexahydrocyclopenta[c]pyrrole-2(1H)-carboxylate] | 30
4 | COC1COCCC1N[C@@H]1C[C@H]2CN(C(=O)COc3ccccc3)C[C@@]2(C(=O)N2CCc3ncc(C(F)(F)F)cc3C2)C1 (relative stereo) [Example 68, 1-((3aR,5R,6aR)-5-(((3S*,4S*)-3-Methoxytetrahydro-2H-pyran-4-yl)amino)-3a-(3-(trifluoromethyl)-5,6,7,8-tetrahydro-1,6-naphthyridine-6-carbonyl)hexahydrocyclopenta-[c]pyrrol-2(1H)-yl)-2-phenoxyethanone] | 130
5 | COC1COCCC1N[C@@H]1C[C@H]2CN(C(=O)CCN3CCOCC3)C[C@@]2(C(=O)N2CCc3ncc(C(F)(F)F)cc3C2)C1 (relative stereo) [Example 80, 1-((3aR,5R,6aR)-5-(((3S*,4S*)-3-Methoxytetrahydro-2H-pyran-4-yl)amino)-3a-(3-(trifluoromethyl)-5,6,7,8-tetrahydro-1,6-naphthyridine-6-carbonyl)hexahydrocyclopenta-[c]pyrrol-2(1H)-yl)-3-morpholinopropan-1-one] | 230
6 | COC1COCCC1N[C@@H]1C[C@H]2CN(C3CC3)C[C@@]2(C(=O)N2CCc3ncc(C(F)(F)F)cc3C2)C1 (relative stereo) [Example 94, ((3aR,5R,6aR)-2-Cyclopropyl-5-(((3S*,4S*)-3-methoxytetrahydro-2H-pyran-4-yl)amino)octahydrocyclopenta[c]pyrrol-3a-yl)(3-(trifluoromethyl)-7,8-dihydro-1,6-naphthyridin-6(5H)-yl)methanone] | 180
7 | COC1COCCC1N[C@@H]1C[C@H]2CN(C3CC3)C[C@@]2(C(=O)N2CCc3ccc(C(F)(F)F)cc3C2)C1 (relative stereo) [Example 95, ((3aR,5R,6aR)-2-Cyclopropyl-5-(((3S*,4S*)-3-methoxytetrahydro-2H-pyran-4-yl)amino)octahydrocyclopenta[c]pyrrol-3a-yl)(7-(trifluoromethyl)-3,4-dihydroisoquinolin-2(1H)-yl)methanone] | 30
8 | COC1COCCC1N[C@@H]1C[C@H]2CN(C(=O)OCCC(C)(C)O)C[C@@]2(C(=O)N2CCc3ncc(C(F)(F)F)cc3C2)C1 (relative stereo) [Example 62, (3aR,5R,6aR)-3-Hydroxy-3-methylbutyl 5-(((3S*,4S*)-3-methoxytetrahydro-2H-pyran-4-yl)amino)-3a-(3-(trifluoromethyl)-5,6,7,8-tetrahydro-1,6-naphthyridine-6-carbonyl)-hexahydrocyclopenta[c]pyrrole-2(1H)-carboxylate] | 60
9 | COC1COCCC1N[C@@H]1C[C@H]2CN(C(=O)OCCN3CCOCC3)C[C@@]2(C(=O)N2CCc3ncc(C(F)(F)F)cc3C2)C1 (relative stereo) [Example 39, (3aR,5R,6aR)-2-Morpholinoethyl 5-(((3S*,4S*)-3-methoxytetrahydro-2H-pyran-4-yl)amino)-3a-(3-(trifluoromethyl)-5,6,7,8-tetrahydro-1,6-naphthyridine-6-carbonyl)hexahydrocyclopenta[c]pyrrole-2(1H)-carboxylate] | 10
10 | COCCNC(=O)N1C[C@@H]2C[C@@H](NC3CCOCC3OC)C[C@]2(C(=O)N2CCc3ncc(C(F)(F)F)cc3C2)C1 (relative stereo) [Example 19, (3aR,5R,6aR)-N-(2-Methoxyethyl)-5-(((3S*,4S*)-3-methoxytetrahydro-2H-pyran-4-yl)amino)-3a-(3-(trifluoromethyl)-5,6,7,8-tetrahydro-1,6-naphthyridine-6-carbonyl)hexahydrocyclopenta[c]pyrrole-2(1H)-carboxamide] | 380
11 | COC1COCCC1N[C@@H]1C[C@H]2CN(C(=O)N(C)C)C[C@@]2(C(=O)N2CCc3ncc(C(F)(F)F)cc3C2)C1 (relative stereo) [Example 21, (3aR,5R,6aR)-5-(((3S*,4S*)-3-Methoxytetrahydro-2H-pyran-4-yl)amino)-N,N-dimethyl-3a-(3-(trifluoromethyl)-5,6,7,8-tetrahydro-1,6-naphthyridine-6-carbonyl)hexahydrocyclopenta[c]pyrrole-2(1H)-carboxamide] | 220
12 | COC1COCCC1N[C@@H]1C[C@H]2CNC(=O)[C@@]2(C(=O)N2CCc3ncc(C(F)(F)F)cc3C2)C1 (relative stereo) [Example 119, (3aR,5R,6aR)-5-(((3S*,4S*)-3-Methoxytetrahydro-2H-pyran-4-yl)amino)-6a-(3-(trifluoromethyl)-5,6,7,8-tetrahydro-1,6-naphthyridine-6-carbonyl)hexahydrocyclopenta-[c]pyrrol-1(2H)-one] | 12000
13 | COC1COCCC1N[C@@H]1C[C@H]2CN(C(=O)OCCC3CCOCC3)C[C@@]2(C(=O)N2CCc3ncc(C(F)(F)F)cc3C2)C1 (relative stereo) [Example 42, (3aR,5R,6aR)-2-(Tetrahydro-2H-pyran-4-yl)ethyl 5-(((3S*,4S*)-3-methoxytetrahydro-2H-pyran-4-yl)amino)-3a-(3-(trifluoromethyl)-5,6,7,8-tetrahydro-1,6-naphthyridine-6-carbonyl)hexahydrocyclopenta[c]pyrrole-2(1H)-carboxylate] | 30
14 | COC1COCCC1N[C@@H]1C[C@H]2CN(C(=O)OCc3ccccc3)C[C@@]2(C(=O)N2CCc3ncc(C(F)(F)F)cc3C2)C1 (relative stereo) [Example 56, (3aR,5R,6aR)-Benzyl 5-(((3S*,4S*)-3-methoxytetrahydro-2H-pyran-4-yl)amino)-3a-(3-(trifluoromethyl)-5,6,7,8-tetrahydro-1,6-naphthyridine-6-carbonyl)hexahydrocyclopenta[c]pyrrole-2(1H)-carboxylate] | 120
